Experimental data from article PMC6078987, “Molecular insights into antibiotic resistance - how a binding protein traps albicidin” (Nature Communications, 2018).
Values joined by “and” are separate entries in the source; they are usually repeats but may differ in a detail not shown here. Identical values can stand only once. “Also recorded” adds a separate entry of the source.

Key:
E. coli DH5α = assay: Agar diffusion assay; assay type: cell-based; details: for neutralization of antibacterial activity by AlbAS: 40 µM compound pre-incubated with 40 µM AlbAS; for antibacterial activity in agar diffusion assay: 40 µM compound, E. coli DH5α, 18 h 37 °C
Procedure: To verify the neutralizing ability of AlbAS, AlbAL, AlbASM, AlbASCTD, or AlbASNTD against different compounds, agar diffusion assays with the respective compounds were performed. An overnight culture of E. coli DH5α was diluted to an OD600 of 0.05 with 0.75% LB-agar. The protein-albicidin reaction mixture consisted of a 1:1 mixture of 40 μM albicidin (or derivatives) with 40 μM protein (either AlbAS or its variants AlbAL, AlbASM, AlbASNTD, and AlbASCTD). The mixture was incubated for 20 min at room temperature in the dark. Reaction mixtures of 30 μL were transferred in triplicates of 2 mm holes on the inoculated agar plate. The plates were evaluated concerning growth-inhibition zone after incubation for 18 h at 37 °C.

AlbAS [1] = molecular target: T1, AlbAS (Klebsiella oxytoca, UniProt Q8KRS7); assay: 1H-15N HSQC NMR binding assay; details: 15N-labeled AlbAS, 1.5-fold excess of ligand
T1 sequence (Q8KRS7 1-221): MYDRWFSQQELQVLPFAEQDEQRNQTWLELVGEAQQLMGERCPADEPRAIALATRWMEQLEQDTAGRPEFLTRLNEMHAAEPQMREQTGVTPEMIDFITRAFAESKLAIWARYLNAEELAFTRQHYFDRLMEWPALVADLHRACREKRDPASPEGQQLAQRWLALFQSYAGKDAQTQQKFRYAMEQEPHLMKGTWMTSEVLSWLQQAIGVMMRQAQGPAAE
Procedure: For binding studies with albicidin and its derivatives, each ligand was dissolved in 100% d6-DMSO and added to ^15N-labeled AlbAS or ^2H, ^15N-labeled AlbAL in 50 mM sodium hydrogen phosphate (pH 6.8), 150 mM NaCl buffer (usually 0.24 mM AlbAS or AlbAL in 85% buffer, 5% d6-DMSO, and 10% D2O) yielding a 1.5-fold excess of the ligand. After incubation for 20 min at room temperature in the dark, the sample was centrifuged at 20 000 × g for 3 min and the supernatant was transferred to a 5 mm NMR tube. The AlbAS blank sample (Supplementary Figure 14) was measured in 100% buffer without addition of ligands and DMSO. Spectra were recorded on a Bruker Avance III 700 MHz NMR spectrometer (Bruker BioSpin, Rheinstetten, Germany) with a TXI probe head. Standard Bruker pulse sequences were used. 2D ^1H-^15N HSQC spectra were recorded at 298 K with acquisition times of 90 and 22 ms for the ^1H and ^15N dimension, respectively. The experiments were accumulated with ≥16 scans depending on protein sample concentration. 2D ^1H-^15N TROSY spectra were accumulated with 256 scans and acquisition times of 90 and 22 ms for the ^1H and ^15N dimension, respectively. Several AlbAS–albicidin samples were measured with the same result and a representative spectrum is given for the figures in the main manuscript and the SI. NMR experiments with AlbAS and albicidin analogs were conducted once with accumulation of ≥16 scans depending on protein concentration. For alignment of HSQC and TROSY spectra, the TROSY spectrum was corrected by 1/2 ^1JNH in both dimensions. […]

AlbAS [2] = molecular target: T1, AlbAS; assay: Fluorescence quenching binding assay (tryptophan fluorescence) with AlbAS; details: for Kd: AlbAS 20 nM, fluorescence quenching, pH 6.8
Procedure: Fluorescence quenching measurements were performed by monitoring tryptophan fluorescence of AlbAS (20 nM), AlbAL (20 nM), AlbASNTD, and AlbASCTD (100 nM) on a FluoroMax 2 spectrometer from Horiba (Potsdam, Germany). The excitation wavelength was set to λexc = 280 nm. Emission spectra were recorded from λem = 290–450 nm with a scanning speed of 1 nm s^−1 and an integration time of 1 s. The excitation and emission slit widths were set to 8 and 4 nm, respectively. Proteins were solved in 50 mM sodium phosphate buffer with 150 mM NaCl and 0.01% DMSO at pH 6.8. All measurements were performed twice and the standard deviation is given for the Kd and the Hill factor n. Data evaluation was performed by integration of the emission band (318–410 nm for AlbAS, 316–412 nm for AlbAL, and 319–390 nm for AlbASNTD and AlbASCTD) for every titration step. The area under the curve (AUC) of the buffer blank (buffer with 0.01% DMSO) was subtracted from the measured titration data. The quenching factor was determined by subtraction of AUCs for each titration step from the AUC of the protein in the absence of ligand. For determination of the AlbAS– and AlbAL–albicidin Kd values, the data were fitted to Eq. (2).2 Y=Bmax[L]^n/Kdn+[L]^n where [L], n, and Bmax denote the total ligand concentration, the Hill coefficient, and the maximum binding capacity of the protein, respectively.
For the determination of the Kd for AlbAS–compound 7 the data were fitted to Eq. (3).3 Y=Pt+L+Kd-Pt+L+Kd^2-4PtL/2 where Pt is the total protein concentration.

`COc1c(NC(=O)c2ccc(NC(=O)c3ccc(NC(=O)[C@H](CC#N)NC(=O)c4ccc(NC(=O)/C(C)=C/c5ccc(F)cc5)cc4)cc3)c(OC)c2O)ccc(C(=O)O)c1O` [compound 1] was tested, and the “neutralization of antibacterial activity by AlbAS” value (“neutralization” for short) (E. coli DH5α) was “abolished the antibacterial activity”.
`COc1c(NC(=O)c2ccc(NC(=O)c3ccc(NC(=O)[C@@H](NC(=O)c4ccc(NC(=O)c5ccc(O)cc5)cc4)[C@@H](C)O)cc3)c(OC)c2O)ccc(C(=O)O)c1O` [compound 2] was tested, and the “neutralization” value (E. coli DH5α) was “confirmed binding”, the “antibacterial activity in agar diffusion assay” value (E. coli DH5α) was “strongly antibacterial” and the “binding to AlbAS by HSQC signal pattern (in words)” value (“binding to AlbAS” for short) (AlbAS [1]) was “characteristic HSQC signal pattern as in the case of albicidin binding; also recorded: no significant effect on AlbAS binding”.
`COc1c(NC(=O)c2ccc(NC(=O)c3ccc(NC(=O)[C@@H](CC#N)NC(=O)c4ccc(NC(=O)/C(C)=C/c5ccc(O)cc5)cc4)cc3)c(OC)c2O)ccc(C(=O)O)c1O` [compound 3] was tested, and the “neutralization” value (E. coli DH5α) was “prohibit its antibacterial effects; also recorded: neutralizing effect” and the “binding to AlbAS” value (AlbAS [1]) was “still able to bind; also recorded: binding mode equivalent to that of albicidin”.
For `C/C(=C\c1ccc(O)cc1)C(=O)Nc1ccc(C(=O)O)cc1` [compound 4], the “effect on fluorescence emission of AlbAS (in words)” value (AlbAS [2]; AlbAS 20 nM titrated with compound) was “did not lead to significant quenching; also recorded: no consistent effect on fluorescence emission spectra”, the “antibacterial activity in agar diffusion assay” value (E. coli DH5α) was “did not display antibacterial activity” and the “binding to AlbAS” value (AlbAS [1]) was “weak binding”.
With `COc1c(NC(=O)c2ccc(NC(=O)c3ccc(N)cc3)c(OC)c2O)ccc(C(=O)O)c1O` [compound 5] the Kd (AlbAS [2]) was ~0.0555 µM and 0.0555 µM, the “antibacterial activity in agar diffusion assay” value (E. coli DH5α) was “did not display antibacterial activity” and the “binding to AlbAS” value (AlbAS [1]) was “slow-exchange regime (strong binding)”.
For `COc1c(NC(=O)c2ccc(NC(=O)[C@H](CC#N)NC(=O)c3ccc(N)cc3)cc2)ccc(C(=O)O)c1O` [compound 6], the “antibacterial activity in agar diffusion assay” value (E. coli DH5α) was “did not display antibacterial activity” and the “binding to AlbAS” value (AlbAS [1]) was “slow-exchange regime (strong binding)”.
With `COC(C(N)=O)C(NC(=O)c1ccc(NC(=O)c2ccc([N+](=O)[O-])cc2)cc1)C(=O)Nc1ccc(C(=O)Nc2ccc(C(=O)Nc3ccc(C(=O)O)cc3OC(C)C)cc2OC(C)C)cc1` (centres unmarked) [compound 7] the Kd (AlbAS [2]) was 0.014 ± 0.0029 µM, the “neutralization” value (E. coli DH5α) was “able to neutralize the antibacterial effects of compound 7, albeit with decreased efficiency” and the “binding to AlbAS” value (AlbAS [1]) was “strong binding of compound 7 in the nanomolar Kd range”.
